This note sets out measurements from US10391108B2 (BioPharmX, Inc., priority 2015, dated 2019).

For this assay, the system named is P. acnes ATCC 6919. The experiment in a line: Minimum Inhibitory Concentration (MIC), broth microdilution. The following applies: 37° C., 2 days, anaerobic, tested 0.0078 to 16 μg/mL. Type of assay: cell-based. The method, then:
The antimicrobial activity of minocycline was assessed by measuring the Minimum Inhibitory Concentration (MIC). MIC was also assessed for several other materials and combinations and relative MIC values were calculated as multiples of the minocycline MIC value. […] Test material was dissolved in water, diluted by two-fold serial titrations for a total of 11 concentrations. A 96-well plate was prepared by adding 196 μL of broth medium seeded with a strain of P. acnes ATCC 6919 bacteria. A 4 μL aliquot of a test substance dilution was added to each well to bring the total volume in each well to 200 μL. The test substance concentrations tested ranged from 0.0078 to 16 μg/mL. Plates were incubated at 37° C. for 2 days in anaerobic conditions. 96-well plates were read by a TECAN […] F50 ELISA microplate reader (Männedorf, Switzerland) in absorbance mode with a wavelength of 620 nm. Each well was evaluated for whether growth occurred or was inhibited. The lowest concentration for which growth was inhibited was recorded as the MIC. Each test substance was evaluated in duplicate.

For `[Cl-].[Cl-].[Mg+2]` [Magnesium chloride, magnesium chloride], the MIC value entry was “did not inhibit growth at any of the concentrations tested”.
